Results as given in paper PMC11157767 (Molecular Cancer, 2024).

System: TFG-MET allograft tumors
Experiment: RNA-sequencing, differential expression and GSEA of TFG-MET allograft tumors
Format: in vivo, mouse
Details: for NES / ES: CAP v Veh
Description: Error bars display standard error of mean, statistical significance was determined using t-test analysis. (****;p<0.0001, ***;p<0.001, **;p<0.01, *;p<0.05). […] Each dot represents an individual replicate. Error bars display standard error of the mean.
Each dot represents one gene.

## CNC(=O)c1ccc(-c2cnc3ncc(Cc4ccc5ncccc5c4)n3n2)cc1F [Capmatinib]
GOMF_METHYL_CPG_BINDING, padj 0.00511198
  NES: -1.901
GOMF_MHC_CLASS_I_PROTEIN_BINDING
  ES: 0.5483
GOMF_MHC_CLASS_I_PROTEIN_BINDING, padj 0.0474647
  NES: 1.828
GOMF_MHC_PROTEIN_BINDING
  ES: 0.5523
GOMF_MHC_PROTEIN_BINDING, padj 0.00543159
  NES: 2.003
GOMF_MHC_PROTEIN_COMPLEX_BINDING
  ES: 0.5077
GOMF_MHC_PROTEIN_COMPLEX_BINDING, padj 0.0199782
  NES: 1.841
GOMF_MOLECULAR_CARRIER_ACTIVITY
  ES: -0.4555
GOMF_MOLECULAR_CARRIER_ACTIVITY, padj 0.0120933
  NES: -1.714
GOMF_MONOCARBOXYLIC_ACID_BINDING
  ES: 0.3828
GOMF_MONOCARBOXYLIC_ACID_BINDING, padj 0.0474647
  NES: 1.672
GOMF_MRNA_3_UTR_AU_RICH_REGION_BINDING
  ES: -0.5181
GOMF_MRNA_3_UTR_AU_RICH_REGION_BINDING, padj 0.0473079
  NES: -1.618
GOMF_NUCLEAR_HORMONE_RECEPTOR_BINDING, padj 0.072562
  NES: -1.431
GOMF_NUCLEAR_IMPORT_SIGNAL_RECEPTOR_ACTIVITY
  ES: -0.6033
GOMF_NUCLEAR_IMPORT_SIGNAL_RECEPTOR_ACTIVITY, padj 0.0320889
  NES: -1.75
GOMF_NUCLEAR_LOCALIZATION_SEQUENCE_BINDING
  ES: -0.6311
GOMF_NUCLEAR_LOCALIZATION_SEQUENCE_BINDING, padj 0.00765978
  NES: -1.864
GOMF_NUCLEOSOMAL_DNA_BINDING
  ES: -0.5966
GOMF_NUCLEOSOMAL_DNA_BINDING, padj 0.0072907
  NES: -1.89
GOMF_N_ACETYLTRANSFERASE_ACTIVITY
  ES: -0.4164
GOMF_N_ACETYLTRANSFERASE_ACTIVITY, padj 0.0419799
  NES: -1.576
GOMF_N_ACYLTRANSFERASE_ACTIVITY
  ES: -0.4102
GOMF_N_ACYLTRANSFERASE_ACTIVITY, padj 0.0206273
  NES: -1.607
GOMF_OXIDOREDUCTASE_ACTIVITY_ACTING_ON_PEROXIDE_AS_ACCEPTOR
  ES: 0.4091
GOMF_OXIDOREDUCTASE_ACTIVITY_ACTING_ON_PEROXIDE_AS_ACCEPTOR, padj 0.0419799
  NES: 1.715
GOMF_PATTERN_RECOGNITION_RECEPTOR_ACTIVITY
  ES: 0.5546
GOMF_PATTERN_RECOGNITION_RECEPTOR_ACTIVITY, padj 0.0257673
  NES: 1.913
GOMF_PEPTIDE_LYSINE_N_ACETYLTRANSFERASE_ACTIVITY
  ES: -0.4722
GOMF_PEPTIDE_LYSINE_N_ACETYLTRANSFERASE_ACTIVITY, padj 0.0420426
  NES: -1.64
GOMF_PEPTIDE_N_ACETYLTRANSFERASE_ACTIVITY
  ES: -0.5177
GOMF_PEPTIDE_N_ACETYLTRANSFERASE_ACTIVITY, padj 0.00513885
  NES: -1.848
GOMF_PHOSPHATIDYLINOSITOL_BINDING
  ES: -0.3004
GOMF_PHOSPHATIDYLINOSITOL_BINDING, padj 0.0651825
  NES: -1.368
GOMF_POLY_A_BINDING
  ES: -0.5704
GOMF_POLY_A_BINDING, padj 0.0381242
  NES: -1.705
GOMF_POLY_PURINE_TRACT_BINDING
  ES: -0.5827
GOMF_POLY_PURINE_TRACT_BINDING, padj 0.00978552
  NES: -1.871
GOMF_POLY_PYRIMIDINE_TRACT_BINDING
  ES: -0.5996
GOMF_POLY_PYRIMIDINE_TRACT_BINDING, padj 0.0067416
  NES: -1.9
GOMF_PROMOTER_SPECIFIC_CHROMATIN_BINDING
  ES: -0.4442
GOMF_PROMOTER_SPECIFIC_CHROMATIN_BINDING, padj 0.0320889
  NES: -1.624
GOMF_PROTEIN_DEMETHYLASE_ACTIVITY
  ES: -0.5705
GOMF_PROTEIN_DEMETHYLASE_ACTIVITY, padj 0.0162496
  NES: -1.8078
GOMF_PROTEIN_DIMERIZATION_ACTIVITY
  ES: -0.2556
GOMF_PROTEIN_DIMERIZATION_ACTIVITY, padj 0.0359639
  NES: -1.243
GOMF_PROTEIN_HETERODIMERIZATION_ACTIVITY
  ES: -0.3318
GOMF_PROTEIN_HETERODIMERIZATION_ACTIVITY, padj 0.0174921
  NES: -1.498
GOMF_PROTEIN_KINASE_ACTIVITY
  ES: -0.2726
GOMF_PROTEIN_KINASE_ACTIVITY, padj 0.0456955
  NES: -1.304
GOMF_PROTEIN_PHOSPHATASE_2A_BINDING
  ES: -0.5386
GOMF_PROTEIN_PHOSPHATASE_2A_BINDING, padj 0.0201355
  NES: -1.753
GOMF_PROTEIN_SERINE_THREONINE_KINASE_ACTIVITY
  ES: -0.3032
GOMF_PROTEIN_SERINE_THREONINE_KINASE_ACTIVITY, padj 0.0120933
  NES: -1.428
GOMF_PROTEIN_TYROSINE_PHOSPHATASE_ACTIVITY
  ES: -0.3851
GOMF_PROTEIN_TYROSINE_PHOSPHATASE_ACTIVITY, padj 0.0351889
  NES: -1.569
GOMF_PROTON_CHANNEL_ACTIVITY
  ES: 0.5654
GOMF_PROTON_CHANNEL_ACTIVITY, padj 0.036911
  NES: 1.8848
GOMF_PROTON_TRANSPORTING_ATP_SYNTHASE_ACTIVITY_ROTATIONAL_MECHANISM
  ES: 0.5869
GOMF_PROTON_TRANSPORTING_ATP_SYNTHASE_ACTIVITY_ROTATIONAL_MECHANISM, padj 0.0283897
  NES: 1.877
GOMF_REGULATORY_RNA_BINDING
  ES: -0.5385
GOMF_REGULATORY_RNA_BINDING, padj 0.00683082
  NES: -1.8485
GOMF_RIBONUCLEOPROTEIN_COMPLEX_BINDING
  ES: -0.5611
GOMF_RIBONUCLEOPROTEIN_COMPLEX_BINDING, padj 7.15005e-11
  NES: -2.398
GOMF_RNA_POLYMERASE_CORE_ENZYME_BINDING
  ES: -0.5304
GOMF_RNA_POLYMERASE_CORE_ENZYME_BINDING, padj 0.00672226
  NES: -1.848
GOMF_RNA_POLYMERASE_II_SPECIFIC_DNA_BINDING_TRANSCRIPTION_FACTOR_BINDING
  ES: -0.3093
GOMF_RNA_POLYMERASE_II_SPECIFIC_DNA_BINDING_TRANSCRIPTION_FACTOR_BINDING, padj 0.0419799
  NES: -1.413
GOMF_RNA_POLYMERASE_II_TRANSCRIPTION_COREGULATOR_BINDING
  ES: -0.521
GOMF_RNA_POLYMERASE_II_TRANSCRIPTION_COREGULATOR_BINDING, padj 0.0452435
  NES: -1.627
GOMF_RNA_POLYMERASE_II_TRANSCRIPTION_COREPRESSOR_BINDING
  ES: -0.5717
GOMF_RNA_POLYMERASE_II_TRANSCRIPTION_COREPRESSOR_BINDING, padj 0.0607303
  NES: -1.658
GOMF_SCAVENGER_RECEPTOR_ACTIVITY
  ES: 0.3949
GOMF_SCAVENGER_RECEPTOR_ACTIVITY, padj 0.0600708
  NES: 1.665
GOMF_SMAD_BINDING
  ES: -0.4569
GOMF_SMAD_BINDING, padj 0.00360904
  NES: -1.79
GOMF_SNORNA_BINDING
  ES: -0.7989
GOMF_SNORNA_BINDING, padj 3.3197e-10
  NES: -2.624
GOMF_SUMO_BINDING
  ES: -0.6876
GOMF_SUMO_BINDING, padj 0.00672226
  NES: -1.882
GOMF_SUMO_TRANSFERASE_ACTIVITY
  ES: -0.594
GOMF_SUMO_TRANSFERASE_ACTIVITY, padj 0.0682113
  NES: -1.626
GOMF_S_ADENOSYLMETHIONINE_DEPENDENT_METHYLTRANSFERASE_ACTIVITY
  ES: -0.5424
GOMF_S_ADENOSYLMETHIONINE_DEPENDENT_METHYLTRANSFERASE_ACTIVITY, padj 2.7667e-10
  NES: -2.336
GOMF_THIOLESTER_HYDROLASE_ACTIVITY
  ES: 0.4211
GOMF_THIOLESTER_HYDROLASE_ACTIVITY, padj 0.0377403
  NES: 1.7345
GOMF_TRANSCRIPTION_COREGULATOR_BINDING
  ES: -0.4265
GOMF_TRANSCRIPTION_COREGULATOR_BINDING, padj 0.0442278
  NES: -1.612
GOMF_TRANSCRIPTION_COREPRESSOR_BINDING
  ES: -0.5161
GOMF_TRANSITION_METAL_ION_BINDING
  ES: -0.2675
GOMF_TRANSITION_METAL_ION_BINDING, padj 0.0113612
  NES: -1.302
GOMF_TRANSLATION_REGULATOR_ACTIVITY
  ES: -0.5628
GOMF_TRANSLATION_REGULATOR_ACTIVITY, padj 1.90601e-11
  NES: -2.407
GOMF_TRNA_BINDING
  ES: -0.6579
GOMF_TRNA_BINDING, padj 2.7667e-10
  NES: -2.532
GOMF_UBIQUITIN_LIKE_PROTEIN_BINDING
  ES: -0.3584
GOMF_UBIQUITIN_LIKE_PROTEIN_BINDING, padj 0.0474647
  NES: -1.467
GOMF_UNFOLDED_PROTEIN_BINDING
  ES: -0.3758
GSEA CAP vs Veh, C5 GO CC, padj 2.86725e-63
  NES GOCC_NUCLEOLUS: -2.612
GSEA CAP vs Veh, C5 GO CC, padj 3.5373e-43
  NES GOCC_RIBONUCLEOPROTEIN_COMPLEX: -2.521
GSEA CAP vs Veh, C5 GO CC, padj 3.83827e-29
  NES GOCC_NUCLEAR_BODY: -2.196
GSEA CAP vs Veh, C5 GO CC, padj 8.43804e-27
  NES GOCC_PRERIBOSOME: -3.164
GSEA CAP vs Veh, C5 GO CC, padj 8.8925e-17
  NES GOCC_CHROMOSOMAL_REGION: -2.317
